Source: publication PMC5612938, “A multiple biomarker assay for quality assessment of botanical drugs using a versatile microfluidic chip” (Scientific Reports, 2017)

How the values were obtained:
[1] = biological target: T1, Thrombin (from human plasma) (Homo sapiens, UniProt P00734); assay: on-chip thrombin inhibition assay (S-2238 hydrolysis, absorbance 405 nm); assay type: biochemical; details: for thrombin inhibition (in words): at tested concentrations
T1 construct: Thrombin (from human plasma); purchased Sigma-Aldrich; host or cells: human plasma
Description: To enhance the performance of the on-chip assay, experimental parameters such as concentrations of enzymes and substrates, substrate reaction time, and incubation time of samples and enzymes were stepwise optimized. The activity of thrombin was determined by measuring the hydrolysis of chromogenic substrate S-2238 (HD-Phe-Pip-Arg-pNA) at 405 nm. As depicted in Fig. 2a, the absorbance increased rapidly along with the elevated concentrations of thrombin, while it reached a plateau at 0.5 U/mL. […] Moreover, it was clear from Fig. 2d that the maximum inhibitory effect of QSYQ sample (I1 of Table 1 in this assay) on thrombin was observed after 60 min of incubation. Therefore, to achieve favorable response and prevent signal saturation, optimal assay conditions for thrombin were determined to be 0.2 U/mL, 0.31 mM, 30 min and 60 min for the final concentrations of thrombin and S-2238, substrate reaction time and incubation time, respectively. […] In this assay, the concentrations of ACE and FAPGG were finally set at 0.027 U/mL and 0.72 mM, where the background value was lower and the reaction time was relatively shorter (30 min).
The optimized protocol was first applied to assess the quality of 11 batches of QSYQ intermediates (Table 1). Enzyme inhibition (in percentages) was employed as an indicator of drug quality and calculated according to the following equations: thrombin inhibition (%) = [1 − (AQSYQ/Ablank)] × 100; ACE inhibition (%) = [1 − (ΔAQSYQ/ΔAblank)] × 100; where AQSYQ and Ablank were the absorbance of the test sample and the blank sample after the enzymatic reaction (the background value was subtracted), and ΔAQSYQ and ΔAblank were the absorbance decrease between 0 min and 30 min of the samples. A scatter plot was generated to display the inhibition result of thrombin and ACE simultaneously. […] Moreover, artificial abnormal samples I6, I7 and I8, each with one abnormal (pre-extracted) herb, presented relatively lower inhibitions compared with I1.
Thrombin (from human plasma), ACE (from rabbit lung), FAPGG and captopril were purchased from Sigma-Aldrich (St. Louis, USA). S-2238 was obtained from Aglyco (Beijing, China). AEBSF-HCl was purchased from Selleckchem (Houston, USA). Trizma base (Tris) was obtained from Sangon Biotech (Shanghai, China) and dimethyl sulfoxide (DMSO) from J&K Scientific (Beijing, China). All other chemicals were purchased from Sinopharm Chemical (Shanghai, China) unless otherwise indicated. 0.2 M Phosphate buffer (PB, pH 6.5), and 50 mM Tris-HCl buffer (200 mM NaCl, pH 8.3) were prepared as assay buffers for thrombin and ACE, respectively.
MBs (10 mg/mL) were diluted 10 times in PB or Tris-HCl buffer, and 10 μL of the diluted MBs (1 mg/mL) were injected into one channel of the chip using a syringe infusion pump (Harvard Apparatus, USA) and retained by an external magnet. Then, 10 μL of thrombin or ACE solution was added and incubated with MBs for two hours at room temperature to form enzyme-MB complexes. The magnet was manually controlled to move MBs back and forth to enhance the ratio of reaction. Subsequently, MBs were washed twice in assay buffer and magnetically transferred to the other channel through the fluidic bridge, whose opening and closing was controlled by a pneumatic valve. Next, 10 μL of sample solutions of tested drug and 10 μL of enzymatic substrate were sequentially infused to the channel by the pump and incubated with the enzyme. When the enzymatic reaction was finished, the MBs were retained in the channel, and air was injected into the channel from the inlet using a syringe to push all the reacted solution to a 384-well plate. The absorbance of the solution was then monitored at 405 nm (for S-2238) or 340 nm (for FAPGG) using an Infinite F200 spectrophotometer (Tecan, Männedorf, Switzerland). Moreover, after detection, the reaction channel was washed three times by assay buffer to remove unbound constituents. […]

[2] = biological target: T1, Thrombin (from human plasma); assay: on-chip affinity screening, binding degree by LC-MS peak area vs protein-free control (thrombin); details: for thrombin; [(As − Ac)/As] × 100, sample vs protein-free control, EIC peak area
Text: In addition to quality assessment, the microfluidic chip can also function as “affinity chromatography” to identify bioactive constituents from botanical drugs in a convenient and efficient manner. After the bioassay, the bound phytochemicals were dissociated from the enzymes and accurately identified by LC-MS. The material used for the chambers in microfluidic system, polydimethylsiloxane (PDMS), is apt to adsorb small molecules nonspecifically, thus a protein-free control was applied to reflect the degree of nonspecific binding of compounds to the chip. Peak areas were obtained from the extracted ion chromatography (EIC) in an ion-trap mass spectrometry (IT-MS), and binding degree (binding degree % = [(As − Ac)/As] × 100, where As and Ac were the peak area in the sample and control, respectively) was calculated to indicate binding specificity. […] All these peaks were unambiguously confirmed via comparisons with chemical standards in terms of retention time and mass spectra (Table 2), and five thrombin inhibitors (danshensu, salvianolic acid B, salvianolic acid C, rosmarinic acid and ginsenoside Rg1) and six ACE inhibitors (astragaloside IV, ononin, formononetin, calycosin, danshensu and salvianolic acid B) were preliminarily identified. […] Enzyme inhibition assays of these hit compounds were then performed to verify the screening results. […] Compounds showing an inhibition rate over 70% were subjected to IC50 measurement.
MBs (10 mg/mL) were diluted 10 times in PB or Tris-HCl buffer, and 10 μL of the diluted MBs (1 mg/mL) were injected into one channel of the chip using a syringe infusion pump (Harvard Apparatus, USA) and retained by an external magnet. Then, 10 μL of thrombin or ACE solution was added and incubated with MBs for two hours at room temperature to form enzyme-MB complexes. The magnet was manually controlled to move MBs back and forth to enhance the ratio of reaction. Subsequently, MBs were washed twice in assay buffer and magnetically transferred to the other channel through the fluidic bridge, whose opening and closing was controlled by a pneumatic valve. Next, 10 μL of sample solutions of tested drug and 10 μL of enzymatic substrate were sequentially infused to the channel by the pump and incubated with the enzyme. When the enzymatic reaction was finished, the MBs were retained in the channel, and air was injected into the channel from the inlet using a syringe to push all the reacted solution to a 384-well plate. The absorbance of the solution was then monitored at 405 nm (for S-2238) or 340 nm (for FAPGG) using an Infinite F200 spectrophotometer (Tecan, Männedorf, Switzerland). Moreover, after detection, the reaction channel was washed three times by assay buffer to remove unbound constituents. 20 μL of 80% aqueous methanol was then injected and incubated with MBs for one hour to dissociate the bound constituents. The resulting solutions of replicates were combined, evaporated by a centrifugal evaporator, reconstituted in 80% aqueous methanol, centrifuged at 10,000 rpm for 10 min, and analyzed by LC-MS for chemical identification.
An Agilent 1100 HPLC system (Agilent Technologies, Waldbronn, Germany) coupled with an LCQ Deca XP^plus IT-MS (Thermo Finnigan, San Jose, CA, USA) equipped with an electrospray ionization (ESI) interface was employed for structure elucidation of the bounded constituents. […]

Row | SMILES | thrombin inhibition (in words) [1] | inhibition rate ([1]; for thrombin, maximum inhibition rate observed in the assay) [%] | Binding degree (%) [2] [%] | IC50 ([1]; for thrombin) [µM]
1 | O=C(O)C(O)Cc1ccc(O)c(O)c1 (stereo not drawn) [Danshensu] | good thrombin inhibitions | 66.9 | 50.9 | 
2 | O=C(/C=C/c1ccc(O)c2c1[C@H](C(=O)O[C@H](Cc1ccc(O)c(O)c1)C(=O)O)[C@@H](c1ccc(O)c(O)c1)O2)O[C@H](Cc1ccc(O)c(O)c1)C(=O)O [Salvianolic acid B] | good thrombin inhibitions |  | 34.9 | 81.9
